Earlier results in patent publication US9180198B2, “Slow-release cilostazol tablet having an improved elution rate and minimal side effects” (KOREA UNITED PHARM, INC., priority 2009, dated 2015).

Columns and labels:
[1] = test system: blood platelets; conditions: blood platelets isolated from a mouse, a rat, a rabbit, a dog and a human
[2] = test system: cAMP-PDE (cyclic AMP phosphodiesterase); conditions: in blood platelets and vascular smooth muscles

## O=C1CCc2cc(OCCCCc3nnnn3C3CCCCC3)ccc2N1 [cilostazol, 6-[4-(cyclohexyl-1H-tetrazol-5-yl)butoxy]-3,4-dihydro-2(1H)-quinolinone]
[1]
  primary aggregation of blood platelets caused by ADP, epinephrine: suppress the primary aggregation of blood platelets
[2]
  cAMP-PDE activity: inhibit cAMP-PDE (cyclic AMP phosphodiesterase) activity
other
  water solubility: poorly water-soluble
